biological target: Histone deacetylase; test: Inhibition of HDAC in human Hela cells nuclear extracts by fluorimetric assay; format: cell-based

SMILES | Ki [µM] | IC50 [µM]
CCCC(=O)O [BUTYRIC ACID] | 136 | –
O=C(O)/C=C/c1ccc(O)c(O)c1 [CAFFEIC ACID] | 10.84 | 2540
O=C(/C=C/c1ccc(O)c(O)c1)O[C@@H]1C[C@](O)(C(=O)O)C[C@@H](O)[C@H]1O [CHLOROGENIC ACID] | 0.135 | 375
CCCC(=O)[O-].[Na+] [SODIUM BUTYRATE] | 365 | 800

Results, then the compound that gave them:

Ki [µM] | IC50 [µM] | SMILES
0.00821 | – | O=C(O)/C=C/c1ccccc1 [CINNAMIC ACID]
8.19 | – | NCCCC(=O)O [GAMMA-AMINOBUTYRIC ACID]
6.34 | – | O=C([O-])CCCc1ccccc1.[Na+] [SODIUM PHENYLBUTYRATE]
